{"source": "patent US9255257B2", "about": "“PmST1 mutants for chemoenzymatic synthesis of sialyl lewis X compounds” (THE REGENTS OF THE UNIVERSITY OF CALIFORNIA, priority 2011, dated 2016)", "key": {"[1]": {"molecular_target": "Pasteurella multocida PmST1 mutant H311A (Pasteurella multocida, UniProt Q15KI8, H311A)", "assay": "CMP-Neu5Ac (donor) hydrolysis activity, capillary electrophoresis", "conditions": "apparent, Tris-HCl pH 8.5, 37° C., 20 min", "method": "The reactions were stopped by adding 10 μL of pre-chilled ethanol. The mixtures were incubated on ice for 30 min and centrifuged at 13,000 rpm for 5 min. The supernatants were diluted with borate buffer (25 mM, pH 9.5) and aliquotes of 5 μL each were injected to a Beckman Coulter P/ACE™ MDQ Capillary Electrophoresis system equipped with a capillary (60 cm×75 μm i.d.) and monitored at 254 nm. The apparent kinetic parameters were obtained by fitting the experimental data (the average values of duplicate assay results) into the Michaelis-Menten equation using Grafit 5.0."}, "[2]": {"molecular_target": "Pasteurella multocida PmST1 mutant R313Y of SEQ ID NO: 13 (R289Y of Δ24PmST1, SEQ ID NO: 9) (Pasteurella multocida, UniProt Q15KI8, R313Y)", "assay": "α2-3-sialyltransferase activity, LacβMU as acceptor", "type": "biochemical", "conditions": "apparent, donor, LacβMU 1 mM, Tris-HCl pH 8.5, 37° C.", "procedure": "(§1) To obtain the apparent kinetic parameters of LacβMU as the acceptor for the α2-3-sialyltransferase activity, the kinetic assays were performed in duplicate in reaction mixtures of 10 μL containing Tris-HCl buffer (100 mM, pH 8.5), a fixed concentration of CMP-Neu5Ac (1 mM), different concentrations of LacβMU (0.2, 0.5, 1.0, 2.0, 5.0, and 9.0 mM) and the mutant proteins (2 μg mL^−1 of E271F, 2 μg mL^−1 of R313Y, and 1.6 μg mL^−1 of E271F/R313Y). All reactions were allowed to proceed at 37° C. for 5 min (E271F), 7 min (R313Y), and 10 min (E271F/R313Y). The apparent kinetic parameters were obtained by fitting the experimental data (the average values of duplicate assay results) into the Michaelis-Menten equation using Grafit 5.0.\n(§2) To obtain the apparent kinetic parameters of CMP-Neu5Ac as the donor for the α2-3-sialyltransferase activity, the kinetic assays were performed in duplicate in reaction mixtures of 10 μL containing Tris-HCl buffer (100 mM, pH 8.5), a fixed concentration of LacβMU (1 mM), different concentrations of CMP-Neu5Ac (0.1, 0.2, 0.5, 1.0, 2.0, 5.0, 10.0 and 20.0 mM) and the mutant proteins (2 μg mL^−1 of E271F, 2 μg mL^−1 of R313Y, and 1.6 μg mL^−1 of E271F/R313Y). All reactions were allowed to proceed at 37° C. for 2 min (E271F), 7 min (R313Y), and 5 min (E271F/R313Y). The apparent kinetic parameters were obtained by fitting the experimental data (the average values of duplicate assay results) into the Michaelis-Menten equation using Grafit 5.0.\n(§3) All the sialidase and α2-3-sialyltransferase assays were performed in an HPLC system. Reactions were stopped by adding 10 μL of ethanol. After necessary dilutions were performed to adjust the concentrations of the fluorescent-labeled compounds, the samples were then kept on ice until aliquots of 8 μL were injected and analyzed by a Shimadzu LC-6AD system equipped with a membrane on-line degasser, a temperature control unit, and a fluorescence detector (Shimadzu RF-10AXL). A reverse-phase Premier C18 column (250×4.6 mm i.d., 5 μm particle size, Shimadzu) protected with a C18 guard column cartridge was used. The mobile phase was 25% acetonitrile. The fluorescent compounds LacβMU and Neu5Acα2-3LacβMU were detected by excitation at 325 nm and emission at 372 nm."}, "[3]": {"molecular_target": "Pasteurella multocida PmST1 mutant E271F of SEQ ID NO: 13 (E247F of Δ24PmST1, SEQ ID NO: 7) (Pasteurella multocida, UniProt Q15KI8, E271F)", "assay": "α2-3-sialyltransferase activity, LacβMU as acceptor", "type": "biochemical", "conditions": "apparent, donor, LacβMU 1 mM, Tris-HCl pH 8.5, 37° C.", "procedure": "as §1, §2, §3"}, "[4]": {"molecular_target": "Pasteurella multocida PmST1 double mutant E271F/R313Y of SEQ ID NO: 13 (E247F/R289Y of Δ24PmST1, SEQ ID NO: 11) (Pasteurella multocida, UniProt Q15KI8, E271F/R313Y)", "assay": "α2-3-sialyltransferase activity, LacβMU as acceptor", "type": "biochemical", "conditions": "apparent, donor, LacβMU 1 mM, Tris-HCl pH 8.5, 37° C.", "procedure": "as §1, §2, §3"}}, "data": [{"smiles": "CC(=O)N[C@H]1[C@H]([C@H](O)[C@H](O)CO)O[C@](OP(=O)(O)OC[C@H]2O[C@@H](n3ccc(N)nc3=O)[C@H](O)[C@@H]2O)(C(=O)O)C[C@@H]1O", "note": "[CMP-Neu5Ac]", "values": [{"measurement": "kcat", "setting": "[1]", "result": "2.1 ± 0.1", "unit": "s⁻¹"}, {"measurement": "kcat (CMP-Neu5Ac)", "setting": "[2]", "result": "19 ± 1", "unit": "s⁻¹"}, {"measurement": "kcat (CMP-Neu5Ac)", "setting": "[3]", "result": "26 ± 1", "unit": "s⁻¹"}, {"measurement": "kcat (CMP-Neu5Ac)", "setting": "[4]", "result": "23 ± 1", "unit": "s⁻¹"}]}]}
